Here are results for ten compounds from patent US4946858A, “Novel spirosuccinimides as aldose reductase inhibitors and antihyperglycemic agents” (American Home Products Corporation, priority 1989, dated 1990).

Read-outs that look alike come from different tables or passages of the source.

A word on the inhibition: it is the share of the control response that was lost under treatment.

The test system of assay [1] is diabetic (db/db) mice. The assay can be described thus: Blood glucose lowering activity in diabetic (db/db) mice. The note with it: for change in vivo at 100 mg/kg: Mus musculus, po, 96 h, 100 mg/kg/day p.o. (gavage), read-out: % Change from vehicle (plasma glucose). Type of assay: in vivo, mouse (db/db, C57BL/KsJ). The text has this:
The blood glucose lowering activity of the compounds of this invention were demonstrable in experiments using diabetic (db/db) mice. […] The animals are obese, glucose intolerant and have fasting hyperglycemia which is sometimes accompanied by a paradoxical hyperinsulinemia. Furthermore, the db/db mouse will eventually develop some of the long-term complications that have been associated with diabetes mellitus. [See Coleman Diabetes, 31 (Suppl. 1), 1 (1982)]. In spite of these commonalities, the acute administration of sulfonylureas (even at extremely high dosages) will not reduce the hyperglycemia of the db/db mouse. [See Tutwiler et al, Diabetes 27, 856 (1978)]. […] On the morning of Day 1, 35 mice [male db/db (C57BL/KsJ), Jackson Laboratories, 2 to 7 months of age and body weight 35 to 60 g] were fasted for 4 hours, weighted and a baseline blood sample was collected from the tail-tip of each mouse without anesthesia, placed directly into a fluoride-containing tube, mixed and maintained on ice. Food was then returned to the mice. The plasma was separated and levels of glucose in plasma determined by the Abbott VP Analyzer. Because of the variable plasma glucose levels of the db/db mice, 5 mice having the most extreme (i.e., highest or lowest) plasma glucose levels were excluded and the remaining 30 mice were randomly assigned into […] of equivalent means plasma glucose levels: On the afternoon of Days 1, 2 and 3 the vehicle, control or test drugs were administered (p.o.) to the ad libitum fed mice. […] The test compounds were given by gavage at a dose of 100 mg/kg/day unless otherwise noted in Table 3. On the morning of Day 4, the mice were weighted and fasted, but water was available ad libitum. Three hours later, a blood sample was collected and then the mice were given the fourth administration of drug or vehicle. Blood samples were collected again from the unanesthetized mice at 2 and 4 hours after drug administration. The plasma was separated and levels of glucose in plasma determined by the Abbott VP Analyzer. For each mouse, the percent change of it's plasma glucose level on Day 4 (mean of the 2 and 4 hour samples) from it's respective level before drug administration (Day 1 baseline sample) was determined as follows: [formula] Analysis of variance followed by Dunnett's multiple comparison (one-sided) was used to estimate the degree of statistical significance of the difference between the vehicle group and the individual drug-treated groups. A drug was considered active, at the specific dosage administered,if the difference of the plasma glucose level has a p<0.05.

Assay [2] relates to hyperglycemia and hyperinsulinemia. The note with it: Fujita et al, Diabetes, 32, 804 (1983); cited from earlier work.
In assay [3] the target is T1, aldose reductase (Bos taurus, UniProt P16116).
T1 construct: preparation of the enzyme from bovine lens; from tissue; host or cells: bovine lens
Nature of the assay: In vitro inhibition of aldose reductase (modified Hayman and Kinoshita procedure, enzyme from bovine lens). Type of assay: biochemical. The note with it: read-out: % Inhibition in Vitro; for inhibition at 1 µM: 10^-6 M. The source says:
In the present case the procedure of Hayman and Kinoshita was modified in that the final chromatography step was omitted in the preparation of the enzyme from bovine lens.

In assay [4] the test system is galactosemic rats. The assay can be described thus: Lowering of galactitol (dulcitol) accumulation in tissues of galactosemic rats. The note with it: 4 days, vs untreated galactosemic rats. Format: in vivo, rat (Sprague-Dawley). The text has this: The aldose reductase inhibiting property of the compounds of this invention and the utilization of the compounds in preventing, diminishing and alleviating diabetic complications by lowering polyol accumulation were also demonstrable in experiments using galactosemic rats, see Dvornik et al, Science, 182, 1146 (1973). Such experiments are exemplified hereinbelow after the listing of the following general comments pertaining to these experiments:
(a) Four or more groups of six male rats, 50-70 g, Sprague-Dawley strain, were used. The first group, the control group, was fed a mixture of laboratory chow (rodent Laboratory Chow, Purina) and glucose at 20% (w/w %) concentration. The untreated galactosemic group and the drug-treated groups were fed a similar diet in which galactose is substituted for glucose. The test compound was either admixed to the diet or administered by gavage. In experiments involving compound administration in the diet, the average dose administered was calculated from the actual food intake of the animals in each group. The concentration of galactose in the diet of the treated groups was the same as that for the untreated galactosemic groups.
(b) After four days, the amimals were killed by decapitation. The eyeballs were removed and punctured with a razor blade; the freed lenses were rolled gently on filter paper and weighed. The sciatic nerves were dissected as completely as possible and weighed. Both tissues when frozen can be kept up to two weeks before being analyzed for galactitol.
(c) The polyol determination was performed by a modification of the procedure of M. Kraml and L. Cosyns, Clin. Biochem., 2, 373 (1969). Only two minor reagent changes were made: (a) the rinsing mixture was an aqueous 5% (w/v) trichloroacetic acid solution and (b) the stock solution was prepared by dissolving 25 mg of dulcitol in 100 mL of an aqueous trichloroacetic acid solution. [N.B.: For each experiment the average value found in the tissue from rats fed the glucose diet was subtracted from the individual values found in the corresponding tissue in galactose-fed rats to obtain the amount of polyol accumulated.]
The figures under L, N, and D represent the percentage decrease of galactitol accumulation in the tissues of the lens, sciatic nerve, and diaphragm, respectively, for treated rats as compared to untreated rats.

The mark [5] stands for this setting: Day 4 mean of 2 and 4 hour samples vs Day 1 baseline, difference from vehicle.

Turning to `CC1(COc2ccc(CC3SC(=O)NC3=O)cc2)CCCCC1` (racemic) [Ciglitazone, (±)-5-[4-[(1-methylcyclohexyl)methoxy]benzyl]-thiazolidine-2,4-dione, reference compound], in assay [1] (setting [5]), the change in vivo at 100 mg/kg is -33%. Also, the “effect on hyperglycemia and hyperinsulinemia” value in assay [2] is “normalizes these parameters”.
For `O=C1CC2(C(=O)N1)c1ccccc1S(=O)(=O)N2Cc1ccc(Br)cc1F` (centres unmarked) [Example 104, 2-[(4-bromo-2-fluorophenyl)methyl]-2,3-dihydrospiro[1,2-benzisothiazole-3,3'-pyrrolidine]-2',5'-dione 1,1-dioxide], the inhibition at 10 µM in assay [3] (10^-5 M) is 52%. Also, the inhibition at 1 µM in assay [3] was 3%. Besides, in assay [4] (104 mg/kg), the “% Lowering of dulcitol accumulation In Vivo, % L (lens)” value came out at 13%. Besides, the “comparison with ciglitazone, blood glucose lowering” value in assay [1] (100 mg/kg, db/db mice) was “gives comparable results to ciglitazone at 100 mg/kg”. Also, the change in vivo at 100 mg/kg in assay [1] (setting [5]) was -48%.
As for `O=C1CC2(C(=O)N1)c1ccccc1S(=O)(=O)N2Cc1ccc(Cl)c(Cl)c1` (centres unmarked) [Example 105], the inhibition at 10 µM in assay [3] (10^-5 M) worked out at 63%. Moreover, the inhibition at 1 µM in assay [3] was found to be 16%. The change in vivo at 100 mg/kg in assay [1] (setting [5]) was -27%.
Regarding `O=C1CC2(C(=O)N1)c1ccccc1S(=O)(=O)N2Cc1ccc(Br)cc1` (centres unmarked) [Example 106, 2-[(4-bromophenyl)methyl]-2,3-dihydrospiro[1,2-benzisothiazole-3,3'-pyrrol-idine]-2',5'-dione 1,1-dioxide], the change in vivo at 100 mg/kg in assay [1] (setting [5]) is -37%.
Still for that read-out and setting: as for `O=C1CC2(C(=O)N1)c1ccccc1S(=O)(=O)N2Cc1c(F)cccc1Cl` (centres unmarked) [Example 110], the figure is -17%.
On to `CC(C)N1C2(CC(=O)NC2=O)c2ccccc2S1(=O)=O` (centres unmarked) [Example 111], for which the “% Change from vehicle (plasma glucose)” value in assay [1] (87 mg/kg/day p.o. (gavage), Day 4 mean of 2 and 4 hour samples vs Day 1 baseline, difference from vehicle) is recorded as -27%.
Turning to `O=C1CC2(C(=O)N1)c1ccccc1C(=O)N2Cc1ccccc1` (centres unmarked) [Example 114], the change in vivo at 100 mg/kg in assay [1] (setting [5]) was -22%.
On to `O=C1CC2(C(=O)N1)c1ccccc1C(=O)N2Cc1ccc(Cl)c(Cl)c1` (centres unmarked) [Example 115], for which, in assay [3] (10^-5 M), the inhibition at 10 µM amounted to 82%. The inhibition at 1 µM in assay [3] worked out at 45%. Moreover, in assay [1] (setting [5]), the change in vivo at 100 mg/kg was -21%.
As to `O=C1CC2(C(=O)N1)c1ccccc1C(=O)N2Cc1ccc(Br)cc1F` (centres unmarked) [Example 116, 2-[(4-bromo-2-fluorophenyl)methyl]spiro[1H-isoindole-1,3'pyrrolidine]-2',3,5'(2H)-trione], the inhibition at 10 µM in assay [3] (10^-5 M) turned out to be 84%. In assay [3], the inhibition at 1 µM worked out at 54%. Also, the “% Lowering of dulcitol accumulation In Vivo, % D (diaphragm)” value (shortened to “% Lowering … (diaphragm)”) in assay [4] (101 mg/kg) is listed as 30%. For the same compound, in assay [1] (setting [5]), the change in vivo at 100 mg/kg was -36%.
As for `CN1C(=O)c2cc(Cl)c(Cl)cc2C12CC(=O)NC2=O` (centres unmarked) [Example 122, 5,6-dichloro-2-methylspiro[1H-isoindole-1,3'-pyrrolidine]-2',3,5'(2H)-trione], in assay [3], the inhibition at 1 µM is 83% and the inhibition at 10 µM stood at 94%. Moreover, in assay [4] (3 mg/kg), the “% Lowering … (diaphragm)” value stood at 25% and the “% Lowering of dulcitol accumulation In Vivo, % N (sciatic nerve)” value amounted to 20%. In assay [4] (50 mg/kg), the “% Lowering … (diaphragm)” value stood at 90%; the “% Lowering of dulcitol accumulation In Vivo, % L (lens)” value came to 71%; the “% Lowering of dulcitol accumulation In Vivo, % N (sciatic nerve)” value was found to be 94%. In assay [1] (setting [5]), the change in vivo at 100 mg/kg is -31%.
